The values below come from patent US8440417B2, “Method for assaying compounds or agents for ability to displace potent ligands of hematopoietic prostaglandin D synthase” (Cayman Chemical Company, Incorporated, priority 2008, dated 2013).

SMILES strings stand for the structures. Read-outs that look alike come from different tables or passages of the source.

For one test, the target named is MBP-H-PGDS fusion enzyme (Homo sapiens, UniProt O60760). The test is described as follows: MBP-H-PGDS fluorescence polarization (FP) displacement assay. It counts as binding. Particulars: detection analyte Compound 20; mean ± spread, N in cell; read-out: MBP-H-PGDS FP Assay: test compound IC50. The procedure:
Detection analyte and H-PGDS-MBP fusion enzyme were incubated in the presence of reduced glutathione (5 mM) for 30-60 minutes at room temperature and FP was measured using a TECAN SAFIRE 2 plate reader equipped with absorbance, fluorescence, fluorescence polarization and FRET capabilities. Assays were performed in 96-well microtiter plates in 100 μL of total sample volume. Excitation and emission wavelengths appropriate for the employed detection analyte were used.
H-PGDS-Maltose binding protein (MBP; 100 μl, 0.5 mg/ml) fusion (MBP-H-PGDS fusion) (FIG. 6) was diluted with 1×FP buffer (900 μL).
Into a 50 mL conical tube was added the H-PGDS 1×FP buffer (18.65 mL), H-PGDS FP fluorescent probe—green (138 μL), MBP-H-PGDS fusion dilution (880 μL), and glutathione solution (1,250 μL).
Assay cocktail (47.5 μL) was added to each plate well.
Test compound solutions (2.5 μL) were added to the wells. […] The IC50 for a particular test compound was obtained by performing a full concentration titration versus a full concentration titration of positive control. Comparison of a single concentration of a test compound to the maximum binding well provided an assessment of the relative affinity of the test compound for MBP-H-PGDS.
The plate was covered and incubated for 60-90 minutes at room temperature. The FP signal is stable for at least two hours.
Plates were read with excitation and emission wavelengths of 470 nm and 530 nm (for detection analyte comprising the fluorescein fluorophore), respectively.
fluorescence polarization of a molecule is defined as: Polarization (mP)=1,000×(Iparallel−Iperpendicular)/(Iparallel+Iperpendicular) where Iparallel is the parallel emission intensity measurement and Iperpendicular is the perpendicular emission intensity measurement.
The clone was then transformed into the expression strain BL21 (DE3) star cells and a glycerol stock was generated. The expected size is 66.29 kDa.
Background: Polarisation of emitted light reports the rotation of a fluorescent probe.

The target of test [1] is T1, H-PGDS (Homo sapiens, UniProt O60760). The settings on record: [1-14C]PGH2 to [1-14C]PGD2, RIA; Aritake et al. 2006; read-out: Reported H-PGDS inhibition IC50; cited from earlier work.
Test [2] relates to PGD2 levels in guinea pig lung tissues. Particulars: chronic treatment; Matsushita et al. 1998; cited from earlier work.
The target of test [3] is T1, H-PGDS. The settings on record: order of magnitude in words; cited from earlier work.
Test [4] concerns the target T1, H-PGDS. Particulars: Taiho poster / patent application, method not stated; read-out: Reported H-PGDS inhibition IC50; cited from earlier work.
Test [5] deals with T1, H-PGDS. The settings on record: GSH-MCB conjugation, fluorometry; Evotec WO 2008/122787, AstraZeneca J. Med. Chem. 2008; read-out: Reported H-PGDS inhibition IC50; cited from earlier work.

T1 sequence (O60760 whole entry, species assumed): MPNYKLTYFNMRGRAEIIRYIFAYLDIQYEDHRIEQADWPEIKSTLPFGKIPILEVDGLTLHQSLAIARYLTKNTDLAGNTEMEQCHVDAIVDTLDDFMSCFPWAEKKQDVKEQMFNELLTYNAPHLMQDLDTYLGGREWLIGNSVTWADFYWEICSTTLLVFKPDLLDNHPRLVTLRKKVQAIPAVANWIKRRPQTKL
Chain of MBP-H-PGDS fusion enzyme (O60760 2-199, looked up): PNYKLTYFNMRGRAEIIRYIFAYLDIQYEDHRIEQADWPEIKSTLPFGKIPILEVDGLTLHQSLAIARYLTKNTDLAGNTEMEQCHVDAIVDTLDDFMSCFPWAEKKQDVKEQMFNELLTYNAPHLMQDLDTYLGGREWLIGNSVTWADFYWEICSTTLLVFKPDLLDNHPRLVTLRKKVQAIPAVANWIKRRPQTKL

Take `O=C(NCc1ccccc1)c1cnc(-c2ccccc2)nc1`: the IC50 at MBP-H-PGDS fusion enzyme is 0.125 µM.

As for `c1ccc(C(OC2CCN(CCCc3nnn[nH]3)CC2)c2ccccc2)cc1`, the IC50 is 15 µM on MBP-H-PGDS fusion enzyme and 6 µM on H-PGDS [1]. Also, in test [2], the “PGD2 levels in guinea pig lung tissues” value was “reduce PGD2 levels”. The “IC50 against H-PGDS in known in vitro assays” value on H-PGDS [3] was “micromolar”.

Regarding `O=C(NC1CCN(Cc2ccccc2)CC1)c1cnc(-c2ccccc2)nc1`, the IC50 on MBP-H-PGDS fusion enzyme worked out at 0.05 ± 0.014 µM.

Turning to `O=C(NC1CCN(Cc2ccccc2)CC1)c1ccc(-c2ccccc2)nc1`, the IC50 on MBP-H-PGDS fusion enzyme amounted to 0.03 µM.

On to `O=C(NC1CCN(Cc2ccccc2)CC1)c1ccc(-c2cccc(F)c2)nc1`, for which, at MBP-H-PGDS fusion enzyme, the half-inhibitory concentration (IC50) was 0.03 µM.

As to `O=C(Nc1ccc(N2CCOCC2)cc1)c1cnc(Oc2ccccc2)nc1`, the IC50 at MBP-H-PGDS fusion enzyme is 0.038 ± 0.011 µM; on H-PGDS [4] it was 0.19 µM.

Regarding `Cc1ccc2nc(NC(=O)N3CCN(C(=O)c4cccc(F)c4)CC3)sc2c1`, the IC50 on MBP-H-PGDS fusion enzyme is 0.308 ± 0.011 µM; at H-PGDS [5] it was 0.001 to 0.01 µM.

In the case of `Cc1[nH]c(C(=O)CCCc2ccccn2)c(C)c1-c1nc2cc(C(=O)c3ccccc3)ccc2[nH]1`, the IC50 on MBP-H-PGDS fusion enzyme is 0.025 ± 0.007 µM; at H-PGDS [4], 0.072 µM.

Take `c1ccc(-c2ncc(-c3cc[nH]n3)s2)cc1`: the IC50 at MBP-H-PGDS fusion enzyme came to 0.438 ± 0.265 µM.

As to `O=C(NCCNc1ccccc1)c1cnc(-c2ccccc2)nc1` [2-phenyl-N-(2-(phenylamino)ethyl)pyrimidine-5-carboxamide], the IC50 at MBP-H-PGDS fusion enzyme turned out to be 0.375 ± 0.18 µM.

Turning to `O=C(c1cnc(-c2ccccc2)nc1)N1CCNCC1` [(2-phenylpyrimidin-5-yl)(piperazin-1-yl)methanone], the IC50 at MBP-H-PGDS fusion enzyme is 250 µM.

`NCCNS(=O)(=O)c1cccc(CNC(=O)c2cnc(-c3ccccc3)nc2)c1` [Compound 19, N-(3-(N-(2-aminoethyl)sulfamoyl)benzyl)-2-phenylpyrimidine-5-carboxamide]: at MBP-H-PGDS fusion enzyme, the IC50 was in the range of 0.2 to 0.3 µM.

For the compound `COc1ccc(CNC(=O)c2ccc(-c3ccccc3)nc2)cc1OC` [N-(3,4-dimethoxybenzyl)-6-phenylnicotinamide], the concentration for half-maximal inhibition (IC50) at MBP-H-PGDS fusion enzyme was 0.575 ± 0.46 µM.

In the case of `Cc1nc(-c2cccc(F)c2)sc1C(=O)NCc1ccccc1` [N-benzyl-2-(3-fluorophenyl)-4-methylthiazole-5-carboxamide], the IC50 at MBP-H-PGDS fusion enzyme is 0.9 ± 0.14 µM.

As for `COc1ccc(/C=C/C(=O)Nc2ccccc2C(=O)O)cc1OC` [Tranilast], the “IC50 against H-PGDS in known in vitro assays” value at H-PGDS [3] was “micromolar”.

Broadly, the IC50 is the concentration needed to halve the response being measured.
